According to patent publication US12391701B2, “Chromene-based compounds, methods and uses thereof” (University of Minho, priority 2019, dated 2025):

Experiments:
Caki-2 parental cells = test: BrdU proliferation assay, Caki-2 parental; type: cell-based; conditions: 24 and 48 hours, IC50 and ½IC50
glioma cell line U87 = test: Cell viability MTS assay, U87; type: cell-based; conditions: Homo sapiens, 72 hours
Procedure: (§1) In an embodiment, the antiproliferative activity of compounds MC408, MC409, MC421 and MC406 was further determined against glioma cell lines (U87, GAMG and GL18) and acute leukemia cell lines (HL-60, KG-1 and Jurkat). This was done in order to evaluate if the compounds presented an equally interesting anticancer profile in other cancer cell models. Cell viability was determined using the MTS assay, after exposure of the cells to the respective compounds for 72 hours at appropriate concentration ranges to determine the respective IC50 values.
(§2) In an embodiment, three human breast cancer cell lines Hs578T, MDA-MB-468 and MCF-7, and a normal breast cell line MCF-10A, were obtained from ATCC (American Type Culture Collection). The cancer cell lines were cultured in Dulbecco's modified Eagle medium, 4.5 g/l glucose (DMEM, Gibco) supplemented with 10% heating inactivated Fetal Bovine Serum (FBS, Gibco) and 1% antibiotic solution (Penicillin-Streptomycin, Gibco). The normal cell line was cultured in Dulbecco's Modified Eagle Medium: Nutrient Mixture F-12 (DMEM/F12, Gibco) supplemented with 5% heating inactivated FBS (Gibco), 1% antibiotic solution (Penicillin-Streptomycin, Gibco), 1% steroid hormone (Hydrocortisone, Sigma-Aldrich), 0.1% peptide hormone (Insulin, Sigma-Aldrich) and 0.01% protein complex (Cholera Toxin, Gibco). Two distinct human acute myeloid leukemia (AML) cell lines, HL-60 (FAB M2) and KG-1 (erythroleukemia-FAB M6), and one human lymphoblastic leukemia (ALL) cell line, Jurkat (T cell type), were also used. These three cell lines were obtained from German Collection of Microorganisms and Cell cultures (DMSZ®, Deutsche Sammlung von Mikroorganismen and Zellkulturen in German). Cells were cultured in RPMI 1640 medium (Biochrom®-Merck Millipore) supplemented with 10% heating inactivated FBS (Biochrom®-Merck Millipore) and 1% antibiotic/antimitotic mixture (Invitrogen®). Three human glioblastoma (GBM) cell line models, two established and commercially available cell lines (U87MG and GAMG, kind gift from Rui M. Reis) and one primary GBM culture (GLIB) were also used. GBM cells were cultures in DMEM (Biochrom-Merck Millipore), all supplemented with 10% FBS. The Renal cell carcinoma cell lines A498, 786-O, Caki-2 and HK2 were obtained from ATCC. The cancer cell line A498 was cultured in MEM medium (Biochrom®-Merck Millipore), 786-O was cultured in RPMI 1640 medium (Biochrom®-Merck Millipore), Caki-2 was cultured in Mc Coys medium (Biochrom®-Merck Millipore) and HK2 was cultured in RPMI 1640 medium (Biochrom®-Merck Millipore). All the media were supplemented with 10% heat inactivated FBS (Biochrom®-Merck Millipore) and 1% antibiotic/antimitotic mixture (Invitrogen®). All cells were grown in a humidified incubator at 37° C. and 5% CO2. […]

glioma cell line GAMG = test: Cell viability MTS assay, GAMG; type: cell-based; conditions: Homo sapiens, 72 hours
Procedure: as §1
as §2, with “used.” for “used. GBM cells were cultures in DMEM (Biochrom-Merck Millipore), all supplemented with 10% FBS. The Renal cell carcinoma cell lines A498, 786-O, Caki-2 and HK2 were obtained from ATCC. The cancer cell line A498 was cultured in MEM medium (Biochrom®-Merck Millipore), 786-O was cultured in RPMI 1640 medium (Biochrom®-Merck Millipore), Caki-2 was cultured in Mc Coys medium (Biochrom®-Merck Millipore) and HK2 was cultured in RPMI 1640 medium (Biochrom®-Merck Millipore). All the media were supplemented with 10% heat inactivated FBS (Biochrom®-Merck Millipore) and 1% antibiotic/antimitotic mixture (Invitrogen®). All cells were grown in a humidified incubator at 37° C. and 5% CO2.”

[1] = test system: acute leukemia cell line HL-60; test: Cell viability MTS assay, HL-60; type: cell-based; conditions: Homo sapiens, 72 hours
Procedure: as §1, §2

[2] = test system: acute leukemia cell line KG-1; test: Cell viability MTS assay, KG-1; type: cell-based; conditions: Homo sapiens, 72 hours
Procedure: as §1, §2

Hs578t cells = test: Annexin V/PI flow cytometry, Hs578t; type: cell-based, human; conditions: IC50 concentration; 24 h
Text: In an embodiment, to understand the mechanisms leading to cell death, cells were studied for the induction of apoptosis by flow cytometry. […] Externalization of phosphatidylserine occurs during the early apoptotic events. While annexin V binds to phosphatidylserine, PI stains only cells that have lost their membrane integrity, an experimental procedure which allows the discrimination between viable cells, early apoptotic cells, late apoptotic/necrotic cells or necrotic cells.
In an embodiment, MCF-7, Hs578t and 786-O cells were seeded in 6-well culture plates and allowed to adhere over 18-20 hours in a complete DMEM (for MCF-7 and Hs578t cells) and complete RPMI (for 786-O cells) medium to detect apoptosis via flow cytometry analysis. […] Triplicates were performed in each experiment. Floating and adherent cells were collected and combined by centrifugation. Elimination of the supernatant was followed by addition of 1 mL of Binding Buffer. 8 μL FITC annexin V (556419, BD Pharmingen) and 30 μl of PI (50 μg/mL, P1304MP, Invitrogen) were added to the cell pellet. Samples were incubated in the dark for 15 min at room temperature. A further 200 μL of Binding Buffer was added to each sample. PI signal was measured using FACS LSRII flow cytometer (BD Biosciences®) with 488 nm excitation laser. The annexin V signal was collected through a 488 nm blocking filter, a 550 nm long-pass dichroic with a 525 nm band pass. Signals were captured and FACS Diva was used as the acquisition software. The percentage of cells in each phase was analysed using the FlowJo 7.6 (Tree Star®) software. Three independent biological replicates were performed.

| Structure (SMILES) | effect on cell proliferation (BrdU) (Caki-2 parental cells) | IC50 (glioma cell line U87) | IC50 (glioma cell line GAMG) | IC50 [1] | IC50 [2] | induction of cell death by apoptosis (annexin V/PI) (Hs578t cells) |
| --- | --- | --- | --- | --- | --- | --- |
| COc1cccc2c1Oc1nc(-c3ccccc3)[nH]c1C2 [MC350, 5-methoxy-2-phenyl-3,9-dihydrochromeno[2,3-d]imidazoles] | decrease cell proliferation |  |  |  |  |  |
| COc1cccc2c1Oc1nc(-c3ccc(F)cc3)[nH]c1C2C1c2cccc(OC)c2Oc2nc(-c3ccc(F)cc3)[nH]c21 (stereo not shown) [MC406, 2,2′-bis(4-fluorophenyl)-5,5′-dimethoxy-1,1,9,9′-tetrahydro-9,9′-bichromeno[2,3-]imidazoles] |  | 0.17 µM | 0.22 µM | 0.65 µM | 1.01 µM | induced cell death by apoptosis |
| COc1cccc2c1Oc1nc(-c3ccc(Br)cc3)[nH]c1C2 [MC408, 2-(4-bromophenyl)-5-methoxy-3,9-dihydrochromeno[2,3-d]imidazoles] |  | 1.85 µM |  | 0.57 µM | 0.64 µM | inducing cell death by apoptosis (early apoptosis) |
| COc1cccc2c1Oc1nc(-c3ccc(F)cc3)[nH]c1C2 [MC409, 2-(4-fluorophenyl)-5-methoxy-3,9-dihydrochromeno[2,3-d]imidazoles] |  | 0.37 µM | 0.43 µM | 0.65 µM | 1.02 µM | induced cell death by apoptosis |
| COc1cccc2c1Oc1nc(-c3ccc(O)cc3)[nH]c1C2 [MC413, 4-(5-methoxy-3,9-dihydrochromeno[2,3-d]imidazol-2-yl)phenol] | decrease cell proliferation |  |  |  |  |  |
| COc1cccc2c1Oc1nc(-c3ccc(Br)cc3)[nH]c1C2C1c2cccc(OC)c2Oc2nc(-c3ccc(Br)cc3)[nH]c21 (stereo not shown) [MC421, 2,2′-bis(4-bromophenyl)-5,5′-dimethoxy-1,1,9,9′-tetrahydro-9,9′-bichromeno[2,3-]imidazoles] | decrease cell proliferation | 0.034 µM | 0.079 µM | 0.25 µM | 0.93 µM | inducing cell death by apoptosis (early apoptosis) |
